The target of experiment [1] is T1, GSK-3β (AA 1-420) (Homo sapiens, UniProt P49841).
T1 construct: GSK-3β (AA 1-420)
Description: Ki determination for the inhibition of GSK-3 (coupled enzyme system). Format: biochemical. Particulars: 20 μM ATP, 300 μM peptide, 20 nM GSK-3β, 30° C. In outline:
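Ki values come from reaction rates over 10 min at 30 °C as a function of inhibitor concentration (12-point titration, 0.002–30 μM, 10 min preincubation). GSK-3β (AA 1-420, 20 nM) phosphorylated 300 μM primed peptide with 20 μM ATP; ADP formation followed by coupled NADH oxidation, pH 7.5.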

Experiment [2] addresses T2, Aurora-2 (Homo sapiens, UniProt O14965).
T2 sequence (O14965 1-403): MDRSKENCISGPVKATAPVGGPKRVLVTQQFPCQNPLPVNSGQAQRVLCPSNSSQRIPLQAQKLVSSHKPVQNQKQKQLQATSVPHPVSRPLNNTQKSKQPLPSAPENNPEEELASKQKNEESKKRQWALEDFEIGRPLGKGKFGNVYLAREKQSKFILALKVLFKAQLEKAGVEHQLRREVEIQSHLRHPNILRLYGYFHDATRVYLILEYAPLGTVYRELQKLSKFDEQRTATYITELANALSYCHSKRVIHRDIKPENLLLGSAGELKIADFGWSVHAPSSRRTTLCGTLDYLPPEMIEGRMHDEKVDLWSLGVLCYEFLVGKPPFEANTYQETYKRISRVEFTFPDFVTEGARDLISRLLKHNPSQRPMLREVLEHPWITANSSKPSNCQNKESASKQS
The experiment in a line: Ki determination for the inhibition of Aurora-2 (coupled enzyme assay). Format: biochemical. The settings on record: 70 nM Aurora-2, peptide LRRASLG, 30° C. As for the experimental part:
Compounds were screened in the following manner for their ability to inhibit Aurora-2 using a standard coupled enzyme assay (Fox et al (1998) Protein Sci 7, 2249).
To an assay stock buffer solution containing 0.1M HEPES 7.5, 10 mM MgCl2, 1 mM DTT, 25 mM NaCl, 2.5 mM phosphoenolpyruvate, […], 30 mg/ml pyruvate kinase, 10 mg/ml lactate dehydrogenase, […], and 800 μM peptide (LRRASLG, American Peptide, Sunnyvale, Calif.) was added a DMSO solution of a compound of the present invention to a final concentration of 30 μM. The resulting mixture was incubated at 30° C. for 10 min. The reaction was initiated by the addition of 10 μL of Aurora-2 stock solution to give a final concentration of 70 nM in the assay. The rates of reaction were obtained by monitoring absorbance at 340 nm over a 5 minute read time at 30° C. using a BioRad Ultramark plate reader (Hercules, Calif.). The Ki values were determined from the rate data as a function of inhibitor concentration.

T1 sequence (P49841 whole entry, the tested form may be a part): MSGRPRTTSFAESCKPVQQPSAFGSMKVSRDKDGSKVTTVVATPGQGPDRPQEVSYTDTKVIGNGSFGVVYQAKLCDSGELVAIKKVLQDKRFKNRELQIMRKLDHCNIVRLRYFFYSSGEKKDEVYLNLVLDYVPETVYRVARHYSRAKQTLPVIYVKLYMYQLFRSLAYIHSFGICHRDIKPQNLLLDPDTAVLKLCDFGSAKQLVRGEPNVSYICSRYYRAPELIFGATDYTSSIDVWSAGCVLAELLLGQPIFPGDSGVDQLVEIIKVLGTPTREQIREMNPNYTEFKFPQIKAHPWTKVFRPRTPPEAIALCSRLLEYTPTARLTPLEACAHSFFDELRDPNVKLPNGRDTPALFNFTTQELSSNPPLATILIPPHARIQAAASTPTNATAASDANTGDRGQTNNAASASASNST

As usually defined, the Ki is the dissociation constant of the complex between target and ligand, obtained from inhibition or displacement. Take `FC(F)(F)c1ccccc1-c1cc2ccccc2c(Nc2n[nH]c3ccccc23)n1` [Compound V-2, (1H-Indazol-3-yl)-[3-(2-trifluoromethyl-phenyl)-isoquinoline-1-yl]-amine]: the Ki in experiment [1] is 0.1 to 1 µM; in experiment [2] it was 1 to 20 µM. For the molecule `Cc1cc(Nc2nc(-c3ccccc3Cl)nc(C)c2C)n[nH]1` [II-1, [2-(2-Clorophenyl)-5,6-dimethylpyrimidin-4-yl]-(5-Methyl-2H-pyrazol-3-yl)-amine], the Ki is less than 0.1 µM in experiment [1] and 0.1 to 1 µM in experiment [2]. Turning to `FC(F)(F)c1ccc2[nH]nc(Nc3nc(-c4ccccc4C(F)(F)F)nc4c3CCCC4)c2c1` [II-10, (5-Trifluoromethyl-1H-indazol-3-yl)-[2-(2-trifluoromethyl-phenyl)-5,6,7,8-tetrahydroquinazolin-4-yl]-amine], the values for the Ki in experiment [1] and in experiment [2] were less than 0.1 µM and 1 to 20 µM, respectively. For the molecule `FC(F)(F)c1ccccc1-c1nc(Nc2n[nH]c3ccccc23)cc(-c2ccccc2)n1` [II-20, (1H-Indazol-3-yl)-[6-phenyl-2-(2-trifluoromethyl-phenyl)-pyrimidin-4-yl]-amine], the Ki in experiment [1] was less than 0.1 µM; in experiment [2], 0.1 to 1 µM.

Turning to `FC(F)(F)c1ccccc1-c1nc(Nc2n[nH]c3ccccc23)cc(-c2ccncc2)n1` [II-21, (1H-Indazol-3-yl)-[6-(pyridin-4-yl)-2-(2-trifluoromethyl-phenyl)-pyrimidin-4-yl]-amine], the figures for the Ki in experiment [1] and in experiment [2] were less than 0.1 µM and 1 to 20 µM, respectively. `Cc1cc(Nc2nc(-c3ccccc3C)nc3ccccc23)n[nH]1` [II-33, (5-Methyl-2H-pyrazol-3-yl)-[2-(2-methylphenyl)-quinazolin-4-yl]-amine]: the Ki in experiment [1] and in experiment [2] was less than 0.1 µM each time. For the molecule `Cc1cc(Nc2nc(-c3ccc(F)cc3F)nc3ccccc23)n[nH]1` [II-34, [2-(2,4-Difluorophenyl)-quinazolin-4-yl]-(5-methyl-2H-pyrazol-3-yl)-amine], the inhibition constant Ki in experiment [1] and in experiment [2] was less than 0.1 µM in each case. For `Cc1cc(Nc2nc(-c3ccccc3Cl)nc3ccccc23)n[nH]1` [II-36, [2-(2-Chlorophenyl)-quinazolin-4-yl]-(5-methyl-2H-pyrazol-3-yl)-amine], the inhibitory constant (Ki) in experiment [1] and in experiment [2] was less than 0.1 µM throughout. In the case of `COc1ccccc1-c1nc(Nc2cc(C)[nH]n2)c2ccccc2n1` [II-37, [2-(2-Methoxyphenyl)-quinazolin-4-yl]-(5-methyl-2H-pyrazol-3-yl)-amine], in experiment [2], the Ki was less than 0.1 µM. Regarding `Cc1cc(Nc2nc(-c3c(C)cccc3C)nc3ccccc23)n[nH]1` [II-38, [2-(2,6-Dimethylphenyl)-quinazolin-4-yl]-(5-methyl-2H-pyrazol-3-yl)-amine], the Ki in experiment [1] is less than 0.1 µM; in experiment [2] it was 0.1 to 1 µM. On to `CC(=O)c1ccccc1-c1nc(Nc2cc(C)[nH]n2)c2ccccc2n1` [II-39, [2-(2-Acetylphenyl)-quinazolin-4-yl]-(5-methyl-2H-pyrazol-3-yl)-amine], for which the Ki in experiment [1] is less than 0.1 µM; in experiment [2] it was 0.1 to 1 µM. For `Cc1cc(Nc2nc(-c3cccc(C)c3C)nc3ccccc23)n[nH]1` [II-40, [2-(2,3-Dimethylphenyl)-quinazolin-4-yl]-(5-methyl-2H-pyrazol-3-yl)-amine], the inhibition constant (Ki) in experiment [1] and in experiment [2] was less than 0.1 µM throughout. Take `Cc1cc(Nc2nc(-c3ccccc3C(F)(F)F)nc3ccccc23)n[nH]1` [II-41, (5-Methyl-2H-pyrazol-3-yl)-[2-(2-trifluoromethylphenyl)-quinazolin-4-yl]-amine]: the Ki in experiment [1] and in experiment [2] was less than 0.1 µM throughout. As for `CCc1ccccc1-c1nc(Nc2cc(C)[nH]n2)c2ccccc2n1` [II-42, [2-(2-Ethylphenyl)-quinazolin-4-yl]-(5-Methyl-2H-pyrazol-3-yl)-amine], the Ki is less than 0.1 µM in experiment [1] and 0.1 to 1 µM in experiment [2]. Turning to `FC(F)(F)c1ccccc1-c1nc(Nc2cc[nH]n2)c2ccccc2n1` [II-53, (2H-Pyrazol-3-yl)-[2-(2-trifluoromethylphenyl)-quinazolin-4-yl]-amine], the inhibition constant Ki in experiment [1] was less than 0.1 µM; in experiment [2], 0.1 to 1 µM. `Oc1cc(Nc2nc(-c3ccccc3C(F)(F)F)nc3ccccc23)n[nH]1` [II-54, (5-Hydroxy-2H-pyrazol-3-yl)-[2-(2-trifluoromethylphenyl)-quinazolin-4-yl]-amine]: the Ki is less than 0.1 µM in experiment [1] and 1 to 20 µM in experiment [2]. As to `FC(F)(F)c1ccccc1-c1nc(Nc2cc(C3CC3)[nH]n2)c2ccccc2n1` [II-55, (5-Cyclopropyl-2H-pyrazol-3-yl)-[2-(2-trifluoromethyl-phenyl)-quinazolin-4-yl]-amine], the Ki in experiment [2] was less than 0.1 µM. On to `FC(F)(F)c1ccccc1-c1nc(Nc2n[nH]c3ccccc23)c2ccccc2n1` [II-57, (1H-indazol-3-yl)-[2-(2-trifluoromethyl-phenyl)-quinazolin-4-yl]-amine], for which the inhibition constant (Ki) in experiment [1] was less than 0.1 µM; in experiment [2], 1 to 20 µM.

On to `Fc1ccc2[nH]nc(Nc3nc(-c4ccccc4C(F)(F)F)nc4ccccc34)c2c1` [II-59, (5-Fluoro-1H-indazol-3-yl)-[2-(2-trifluoromethyl-phenyl)-quinazolin-4-yl]-amine], for which the Ki is less than 0.1 µM in experiment [1] and 1 to 20 µM in experiment [2].

Regarding `COc1ccc(-n2nc3c(Nc4nc(-c5ccccc5)nc5ccccc45)n[nH]c3cc2=O)cc1` [III-136, [5-(4-Methoxy-phenyl)-6-oxo-5,6-dihydro-1H-pyrazolo[4,3-c]pyridazin-3-yl]-(2-phenyl-quinazolin-4-yl)-amine], the Ki in experiment [1] lay within 0.1 to 1 µM.

`O=c1cc2[nH]nc(Nc3nc(-c4ccccc4)nc4ccccc34)c2nn1-c1ccc(Cl)cc1Cl` [III-137, [5-(2,4-Dichloro-phenyl)-6-oxo-5,6-dihydro-1H-pyrazolo[4,3-c]pyridazin-3-yl]-(2-phenyl-quinazolin-4-yl)-amine] yielded a Ki in experiment [1] of 1 to 20 µM. On the same count and under the same terms, as for `O=c1cc2[nH]nc(Nc3nc(-c4ccccc4)nc4ccccc34)c2nn1-c1cccc(C(F)(F)F)c1` [III-138, [6-Oxo-5-(3-trifluoromethyl-phenyl)-5,6-dihydro-1H-pyrazolo[4,3-c]pyridazin-3-yl]-(2-phenyl-quinazolin-4-yl)-amine], the figure is 0.1 to 1 µM. Molecule `O=c1cc2[nH]nc(Nc3nc(-c4ccccc4)nc4ccccc34)c2nn1-c1ccc(Oc2ccccc2)cc1` [III-139, [6-Oxo-5-(4-Phenoxy-phenyl)-5,6-dihydro-1H-pyrazolo[4,3-c]pyridazin-3-yl]-(2-phenyl-quinazolin-4-yl)-amine] registered a Ki in experiment [1] of 1 to 20 µM. `O=c1cc2[nH]nc(Nc3nc(-c4ccccc4)nc4ccccc34)c2nn1-c1ccc(Cl)cc1` [III-140, [5-(4-Chloro-phenyl)-6-oxo-5,6-dihydro-1H-pyrazolo[4,3-c]pyridazin-3-yl]-(2-phenyl-quinazolin-4-yl)-amine] came in with a Ki in experiment [1] of 0.1 to 1 µM.

For the molecule `Cc1nccn1-c1nc(Nc2[nH]nc3ccccc23)c2ccccc2n1` [III-142], the inhibitory constant (Ki) in experiment [1] lay within 0.1 to 1 µM.

Regarding `c1ccc2c(Nc3[nH]nc4ccccc34)nc(N3CCCCC3)nc2c1` [III-143, (1H-Indazol-3-yl)-(2-piperidin-1-yl-quinazolin-4-yl)-amine], the inhibition constant (Ki) in experiment [1] is 1 to 20 µM.

`CC1CN(c2nc(Nc3[nH]nc4ccccc34)c3ccccc3n2)CC(C)O1` (stereo not shown) [III-145, (1H-Indazol-3-yl)-[2-(2,6-dimethyl-morpholin-4-yl)-quinazolin-4-yl]-amine]: in experiment [1], the Ki is 1 to 20 µM. Still for that read-out and setting: then `CC1CCCCN1c1nc(Nc2n[nH]c3ccccc23)c2ccccc2n1` (stereo not shown) [III-146], with 1 to 20 µM; and `Fc1ccc2[nH]nc(Nc3nc(-c4ccccc4)nc4c3CNCC4)c2c1` [IV-36, (5-Fluoro-1H-indazol-3-yl)-(2-phenyl-5,6,7,8-tetrahydro-pyrido[4,3-d]pyrimidin-4-yl)-amine], with 0.1 to 1 µM; and `Cc1nc(Nc2nc(-c3ccccc3C(F)(F)F)nc3ccccc23)n[nH]1` [IX-38, (5-Methyl-2H-[1,2,4]triazol-3-yl)-[2-(2-trifluoromethylphenyl)-quinazolin-4-yl]-amine], with 0.1 to 1 µM. The same measure, in the same setting: then `CSc1n[nH]c(Nc2nc(-c3ccccc3C(F)(F)F)nc3ccccc23)n1` [IX-156, (5-Methylsulfanyl-2H-[1,2,4]triazol-3-yl)-[2-(2-trifluoromethylphenyl)-quinazolin-4-yl]-amine], with 1 to 20 µM.

In experiment [1], `c1ccc(-c2cc(Nc3nc[nH]n3)c3ccccc3n2)cc1` [IX-176, (2-Phenyl-quinolin-4-yl)-(1H-[1,2,4]triazol-3-yl)-amine] had a Ki of 1 to 20 µM.

(Values after US6610677B2, “Pyrazole compounds useful as protein kinase inhibitors” (Vertex Pharmaceuticals Incorporated, priority 2000, dated 2003).)
